Data from patent publication US20230053540A1, “TREATMENT OF LIVER INJURY” (Massachusetts Institute of Technology, priority 2019, published 2023).

Tested on: hepatocytes
Experiment: Seq-Well scRNA-Seq of hepatocytes after APAP overdose (signature scores, DEG vs untreated)
Assay type: in vivo, mouse
[1] = time point A6 vs untreated (UT)

## CC(=O)Nc1ccc(O)cc1 [APAP, acetaminophen]
[1]
  avg_logFC Mrpl42: −0.2845
  avg_logFC Mrps18c: −0.3663
  avg_logFC Msn: 0.2602
  avg_logFC Mup2: −0.5045
  avg_logFC Mvd: −0.2704
  avg_logFC Myo1b: 0.2624
  avg_logFC Naprt1: −0.3381
  avg_logFC Ndufa1: −0.3645
  avg_logFC Ndufb3: −0.3272
  avg_logFC Ndufb8: −0.3481
  avg_logFC Ndufc1: −0.3444
  avg_logFC Ndufs4: −0.3132
  avg_logFC Ndufs8: −0.3614
  avg_logFC Ndufv3: −0.3971
  avg_logFC Nedd8: −0.3564
  avg_logFC Nedd41: 0.2812
  avg_logFC Net1: 0.3479
  avg_logFC Nop10: −0.2919
  avg_logFC Nrp1: 0.3608
  avg_logFC Nucks1: 0.3558
  avg_logFC Nudt4: 0.2542
  avg_logFC Oaz1: −0.3472
  avg_logFC Otc: −0.299
  avg_logFC Pacsin2: 0.3708
  avg_logFC Palld: 0.3414
  avg_logFC Pank1: −0.3527
  avg_logFC Paqr9: −0.3323
  avg_logFC Pet100: −0.28
  avg_logFC Phc2: 0.312
  avg_logFC Pi4k2a: 0.3536
  avg_logFC Pik3c2a: 0.3249
  avg_logFC Plk3: 0.4166
  avg_logFC Pnkd: −0.2928
  avg_logFC Ppp1r12a: 0.3563
  avg_logFC Prdx5: −0.2821
  avg_logFC Proc: −0.2707
  avg_logFC Psmb1: −0.3585
  avg_logFC Psmb3: −0.3303
  avg_logFC Psmb6: −0.3194
  avg_logFC Ptp4a1: 0.2627
  avg_logFC Ptpn2: 0.2734
  avg_logFC Ptpn12: 0.3342
  avg_logFC Purb: 0.3525
  avg_logFC Pvrl2: −0.2613
  avg_logFC Pxk: 0.2819
  avg_logFC Pxmp2: −0.3671
  avg_logFC Rab6a: 0.3234
  avg_logFC Rbm25: 0.4215
  avg_logFC Rexo2: −0.3263
  avg_logFC Rlim: 0.3102
  avg_logFC Rnaseh2c: −0.3257
  avg_logFC Romo1: −0.3359
  avg_logFC Rps3: −0.3493
  avg_logFC Rps9: −0.3718
  avg_logFC Rps10: −0.3369
  avg_logFC Rps21: −0.3645
  avg_logFC Rsl1d1: 0.3461
  avg_logFC S100a1: −0.3743
  avg_logFC Sar1b: −0.3079
  avg_logFC Sbno1: 0.3671
  avg_logFC Sc4mol: −0.3262
  avg_logFC Scaf11: 0.3598
  avg_logFC Scd1: −0.4661
  avg_logFC Sdhb: −0.2896
  avg_logFC Sdhd: −0.3353
  avg_logFC Sdr9c7: −0.26
  avg_logFC Sdsl: 0.2593
  avg_logFC Sec61b: −0.2903
  avg_logFC Selk: −0.3383
  avg_logFC Sf1: 0.3023
  avg_logFC Sfpq: 0.394
  avg_logFC Sgk1: 0.2843
  avg_logFC Shb: 0.3152
  avg_logFC Sigmar1: −0.3055
  avg_logFC Sirt3: −0.346
  avg_logFC Slc2a2: −0.3123
  avg_logFC Slc10a1: −0.3258
  avg_logFC Slco1a1: −0.3628
  avg_logFC Slco1a4: 0.3137
  avg_logFC Slirp: −0.3085
  avg_logFC Smap2: 0.3489
  avg_logFC Smdt1: −0.3673
  avg_logFC Smg1: 0.335
  avg_logFC Srsf11: 0.4012
  avg_logFC Stbd1: −0.2732
  avg_logFC Stk17b: 0.2911
  avg_logFC Stom: 0.3232
  avg_logFC Sult1d1: −0.3165
  avg_logFC Tbl1xr1: 0.3075
  avg_logFC Tcea3: −0.355
  avg_logFC Tceb2: −0.3207
  avg_logFC Tgm2: 0.3993
  avg_logFC Tgoln1: 0.2657
  avg_logFC Timm8b: −0.3936
  avg_logFC Tjp1: 0.2862
  avg_logFC Tm7sf2: −0.3164
  avg_logFC Tmbim6: −0.2711
  avg_logFC Tmem37: −0.2822
  avg_logFC Tmem86b: −0.2582
  avg_logFC Tmem106b: 0.2802
  avg_logFC Tmem147: −0.2838
  avg_logFC Tmem150a: −0.2535
  avg_logFC Tmem160: −0.339
  avg_logFC Tmem242: −0.2725
  avg_logFC Tmem243: −0.3791
  avg_logFC Tmem258: −0.2769
  avg_logFC Tnks2: 0.3176
  avg_logFC Tob1: −0.3387
  avg_logFC Tpr: 0.4409
  avg_logFC Tsc22d1: −0.2997
  avg_logFC Tspo: −0.3157
  avg_logFC Txn1: −0.3091
  avg_logFC Ubl5: −0.3033
  avg_logFC Ucp2: 0.2612
  avg_logFC Ugt2a3: −0.3075
  avg_logFC Uqcc2: −0.3269
  avg_logFC Wdr43: 0.3438
  avg_logFC Yap1: 0.3281
  avg_logFC Zfp683: −0.4217
  avg_logFC Zyx: 0.2983
  avg_logFC mmu-mir-6236: 0.5206
Time point A24
  Adck3 pct.1: 0.68
  Arhgap5 pct.1: 0.566
  Arhgef12 pct.1: 0.541
  Arl5a pct.1: 0.459
  Atp1a1 pct.1: 0.532
  Atp5e pct.1: 0.688
  Atp5f1 pct.1: 0.8
  Atp6v1f pct.1: 0.244
  Atp11c pct.1: 0.649
  Atp13a3 pct.1: 0.546
  Azin1 pct.1: 0.46
  Bnip3 pct.1: 0.39
  Brd2 pct.1: 0.512
  Bzw1 pct.1: 0.487
  Cald1 pct.1: 0.79
  Caprin1 pct.1: 0.567
  Ces3b pct.1: 0.683
  Copb2 pct.1: 0.595
  Copz1 pct.1: 0.501
  Cox7b pct.1: 0.768
  Cpne3 pct.1: 0.456
  Ctnnb1 pct.1: 0.566
  Cyp4a14 pct.1: 0.245
  Cyp27a1 pct.1: 0.759
  Ddost pct.1: 0.493
  Dennd5b pct.1: 0.476
  Deptor pct.1: 0.583
  Dnajb9 pct.1: 0.373
  Dnajb11 pct.1: 0.557
  Eci1 pct.1: 0.581
  Edem1 pct.1: 0.566
  Ehhadh pct.1: 0.552
  Eif4b pct.1: 0.542
  Ell2 pct.1: 0.552
  Eprs pct.1: 0.587
  Erbb2ip pct.1: 0.482
  Erp44 pct.1: 0.469
  Esd pct.1: 0.67
  Fam120a pct.1: 0.51
  Fasn pct.1: 0.449
  Fcgrt pct.1: 0.461
  Gch1 pct.1: 0.502
  Gm23935 pct.1: 0.919
  Gm24245 pct.1: 0.369
  Gpam pct.1: 0.329
  Grlf1 pct.1: 0.413
  Gstm3 pct.1: 0.293
  H6pd pct.1: 0.675
  Id3 pct.1: 0.278
  Ide pct.1: 0.604
  Iqgap2 pct.1: 0.748
  Ireb2 pct.1: 0.469
  Jak1 pct.1: 0.482
  Lasp1 pct.1: 0.361
  Lgr4 pct.1: 0.399
  Lpin2 pct.1: 0.7
  Macf1 pct.1: 0.349
  Magt1 pct.1: 0.52
  Man2a1 pct.1: 0.675
  Mbnl1 pct.1: 0.428
  Met pct.1: 0.434
  Mt1 pct.1: 0.41
  Mtss1 pct.1: 0.581
  Nadk2 pct.1: 0.539
  Narf pct.1: 0.411
  Ndufa6 pct.1: 0.692
  Ndufb6 pct.1: 0.636
  Ndufc2 pct.1: 0.465
  Nop10 pct.1: 0.227
  Nr1i3 pct.1: 0.237
  Nrp1 pct.1: 0.426
  Osbp19 pct.1: 0.569
  Osbpl1a pct.1: 0.592
  Ostc pct.1: 0.514
  Pik3c2a pct.1: 0.36
  Plin5 pct.1: 0.181
  Prdx4 pct.1: 0.47
  Prdx5 pct.1: 0.731
  Prkaa2 pct.1: 0.451
  Prox1 pct.1: 0.477
  Proz pct.1: 0.622
